{"source": "patent US7402314B2", "about": "“In vivo activation of tumor-specific cytotoxic T cells” (The Scripps Research Institute, priority 1995, dated 2008)", "key": {"BT549": {"test_system": "BT549", "test": "Cytotoxicity assay, killing of tumors (Table 7)", "assay_type": "cell-based, human", "settings": "BT549, Breast, A2 +", "protocol": "(§1) One hundred and six (106) target cells were incubated at 37° C. with […] of sodium ^51Cr chromate for 90 minutes in the presence or absence of specific peptide. Cells were washed three times and resuspended in 5% RPMI. For the assay, 104 ^51Cr-labeled target cells were incubated with different concentrations of effector cells in a final volume of […] in U-bottomed 96-well plates. Supernatants were removed after 4-7 hrs at 37° C., and the percent specific lysis was determined by the following formula: […]\n(§2) Tumor cells were preincubated for 24 hours prior to the assay in media supplemented with γ-interferon (γ-IFN, 20 ng/ml) plus tumor necrosis factor-α (TNF-α, 3 ng/ml). It is known that such pretreatment of tumor cells increases the expression of MHC I and adhesion molecules such as ICAM I on the surface of the cell thus enhancing their sensitivity to lysis by CTL. (See, e.g., Fisk, et al., Lympho. & Cylokine Res. 13: 125-131 (1994); Fady, et al., Cancer Immunol. Immunother. 37: 329-336 (1993).)"}, "CASKI": {"test_system": "CASKI", "test": "Cytotoxicity assay, killing of tumors (Table 7)", "assay_type": "cell-based, human", "settings": "CASKI, Cervix, A2 +, Her-2 +", "protocol": "as §1, §2"}, "Hep-G2": {"test_system": "Hep-G2", "test": "Cytotoxicity assay, killing of tumors (Table 7)", "assay_type": "cell-based, human", "settings": "Hep-G2, Hepatoma, A2 +, Her-2 +", "protocol": "as §1, §2"}, "JY": {"test_system": "JY", "test": "Cytotoxicity assay, killing of tumors (Table 7)", "assay_type": "cell-based, human", "settings": "JY, Lymphoma, A2 +, Her-2 −", "protocol": "as §1, §2"}, "LG-2": {"test_system": "LG-2", "test": "Cytotoxicity assay, killing of tumors (Table 7)", "assay_type": "cell-based, human", "settings": "LG-2, EBV-trans., A2 +, Her-2 −", "protocol": "as §1, §2"}, "MALME-3M": {"test_system": "MALME-3M", "test": "Cytotoxicity assay, killing of tumors (Table 7)", "assay_type": "cell-based, human", "settings": "MALME-3M, Melanoma, A2 +, Her-2 +", "protocol": "as §1, §2"}, "MCF-7": {"test_system": "MCF-7", "test": "Cytotoxicity assay, killing of tumors (Table 7)", "assay_type": "cell-based, human", "settings": "MCF-7, Breast, A2 +, Her-2 +", "protocol": "as §1, §2"}, "MDA.M8231": {"test_system": "MDA.M8231", "test": "Cytotoxicity assay, killing of tumors (Table 7)", "assay_type": "cell-based, human", "settings": "MDA.M8231, Breast, A2 +", "protocol": "as §1, §2"}, "MDA.MB435": {"test_system": "MDA.MB435", "test": "Cytotoxicity assay, killing of tumors (Table 7)", "assay_type": "cell-based, human", "settings": "MDA.MB435, Breast, A2 −, Her-2 +", "protocol": "as §1, §2"}, "NCI.H1355": {"test_system": "NCI.H1355", "test": "Cytotoxicity assay, killing of tumors (Table 7)", "assay_type": "cell-based, human", "settings": "NCI.H1355, Lung, A2 +", "protocol": "as §1, §2"}, "OVCAR-5": {"test_system": "OVCAR-5", "test": "Cytotoxicity assay, killing of tumors (Table 7)", "assay_type": "cell-based, human", "settings": "OVCAR-5, Ovarian, A2 +, Her-2 +", "protocol": "as §1, §2"}, "SAOS.175": {"test_system": "SAOS.175", "test": "Cytotoxicity assay, killing of tumors (Table 7)", "assay_type": "cell-based, human", "settings": "SAOS.175, Osteosarcoma, A2 +, Her-2 +", "protocol": "as §1, §2"}, "SKMEL-5": {"test_system": "SKMEL-5", "test": "Cytotoxicity assay, killing of tumors (Table 7)", "assay_type": "cell-based, human", "settings": "SKMEL-5, Melanoma, A2 +, Her-2 +", "protocol": "as §1, §2"}, "ST486": {"test_system": "ST486", "test": "Cytotoxicity assay, killing of tumors (Table 7)", "assay_type": "cell-based, human", "settings": "ST486, Lymphoma, A2 +, Her-2 −", "protocol": "as §1, §2"}, "SV80": {"test_system": "SV80", "test": "Cytotoxicity assay, killing of tumors (Table 7)", "assay_type": "cell-based, human", "settings": "SV80, Fibroblast, A2 +, Her-2 −", "protocol": "as §1, §2"}, "SW480": {"test_system": "SW480", "test": "Cytotoxicity assay, killing of tumors (Table 7)", "assay_type": "cell-based, human", "settings": "SW480, Colon, A2 +, Her-2 +", "protocol": "as §1, §2"}, "T98G": {"test_system": "T98G", "test": "Cytotoxicity assay, killing of tumors (Table 7)", "assay_type": "cell-based, human", "settings": "T98G, Glioblastoma, A2 +, Her-2 +", "protocol": "as §1, §2"}, "U2-OS": {"test_system": "U2-OS", "test": "Cytotoxicity assay, killing of tumors (Table 7)", "assay_type": "cell-based, human", "settings": "U2-OS, Osteosarcoma, A2 +, Her-2 +", "protocol": "as §1, §2"}, "U87G": {"test_system": "U87G", "test": "Cytotoxicity assay, killing of tumors (Table 7)", "assay_type": "cell-based, human", "settings": "U87G, Glioblastoma, A2 +, Her-2 −", "protocol": "as §1, §2"}, "HLA-A2.1": {"target": "HLA-A2.1 (Homo sapiens, UniProt P04439, D140Y/D185E/D98H/E176V/E277Q/G131W/G231S/I119V/I121R/I166T/I218V/L300P/L318F/N151K/N90K/P208A/P217A/Q86G/Q94H/R138H/R169H/T345S)", "test": "Competition assay of peptide binding to HLA-A2.1 (inhibition of M1 58-66 binding, clone 12 lysis of EA2 targets)"}, "A2.1/K^b-Tg mice": {"test_system": "A2.1/K^b-Tg mice", "test": "Peptide priming of A2.1/K^b-Tg mice, lytic activity of peptide-specific CTL", "assay_type": "in vivo", "parameters": "Lytic Activity by Peptide-Specific CTL After Priming of A2.1/K^b-Tg Mice [Specific ^51Cr release (%)]: concentration or dose not given beside the values"}, "[1]": {"test_system": "peptide-pulsed T2 targets", "assay_type": "cell-based, human"}, "[2]": {"settings": "+ CYT (γ-IFN plus TNF-α, 24 hours)"}}}
{"sequence": "VMAGVGSPYV [Peptide H7]", "values": [{"measurement": "Killing of Tumors Expressing Her-2/neu (percent specific lysis)", "setting": "BT549; [2]", "result": 36, "unit": "%"}, {"measurement": "Killing of Tumors Expressing Her-2/neu (percent specific lysis)", "setting": "BT549; no cytokines", "result": 2, "unit": "%"}, {"measurement": "Killing of Tumors Expressing Her-2/neu (percent specific lysis)", "setting": "CASKI; [2]", "result": 20, "unit": "%"}, {"measurement": "Killing of Tumors Expressing Her-2/neu (percent specific lysis)", "setting": "CASKI; no cytokines", "result": 9, "unit": "%"}, {"measurement": "Killing of Tumors Expressing Her-2/neu (percent specific lysis)", "setting": "Hep-G2; [2]", "result": 29, "unit": "%"}, {"measurement": "Killing of Tumors Expressing Her-2/neu (percent specific lysis)", "setting": "Hep-G2; no cytokines", "result": 4, "unit": "%"}, {"measurement": "Killing of Tumors Expressing Her-2/neu (percent specific lysis)", "setting": "JY; [2]", "result": 2, "unit": "%"}, {"measurement": "Killing of Tumors Expressing Her-2/neu (percent specific lysis)", "setting": "JY; no cytokines", "result": 4, "unit": "%"}, {"measurement": "Killing of Tumors Expressing Her-2/neu (percent specific lysis)", "setting": "LG-2; [2]", "result": 3, "unit": "%"}, {"measurement": "Killing of Tumors Expressing Her-2/neu (percent specific lysis)", "setting": "LG-2; no cytokines", "result": 1, "unit": "%"}, {"measurement": "Killing of Tumors Expressing Her-2/neu (percent specific lysis)", "setting": "MALME-3M; [2]", "result": 14, "unit": "%"}, {"measurement": "Killing of Tumors Expressing Her-2/neu (percent specific lysis)", "setting": "MALME-3M; no cytokines", "result": 4, "unit": "%"}, {"measurement": "Killing of Tumors Expressing Her-2/neu (percent specific lysis)", "setting": "MCF-7; [2]", "result": 40, "unit": "%"}, {"measurement": "Killing of Tumors Expressing Her-2/neu (percent specific lysis)", "setting": "MCF-7; no cytokines", "result": 7, "unit": "%"}, {"measurement": "Killing of Tumors Expressing Her-2/neu (percent specific lysis)", "setting": "MDA.M8231; [2]", "result": 89, "unit": "%"}, {"measurement": "Killing of Tumors Expressing Her-2/neu (percent specific lysis)", "setting": "MDA.M8231; no cytokines", "result": 26, "unit": "%"}, {"measurement": "Killing of Tumors Expressing Her-2/neu (percent specific lysis)", "setting": "MDA.MB435; [2]", "result": 1, "unit": "%"}, {"measurement": "Killing of Tumors Expressing Her-2/neu (percent specific lysis)", "setting": "MDA.MB435; no cytokines", "result": 1, "unit": "%"}, {"measurement": "Killing of Tumors Expressing Her-2/neu (percent specific lysis)", "setting": "NCI.H1355; [2]", "result": 62, "unit": "%"}, {"measurement": "Killing of Tumors Expressing Her-2/neu (percent specific lysis)", "setting": "NCI.H1355; no cytokines", "result": 13, "unit": "%"}, {"measurement": "Killing of Tumors Expressing Her-2/neu (percent specific lysis)", "setting": "OVCAR-5; [2]", "result": 23, "unit": "%"}, {"measurement": "Killing of Tumors Expressing Her-2/neu (percent specific lysis)", "setting": "OVCAR-5; no cytokines", "result": 13, "unit": "%"}, {"measurement": "Killing of Tumors Expressing Her-2/neu (percent specific lysis)", "setting": "SAOS.175; [2]", "result": 35, "unit": "%"}, {"measurement": "Killing of Tumors Expressing Her-2/neu (percent specific lysis)", "setting": "SAOS.175; no cytokines", "result": 27, "unit": "%"}, {"measurement": "Killing of Tumors Expressing Her-2/neu (percent specific lysis)", "setting": "SKMEL-5; [2]", "result": 40, "unit": "%"}, {"measurement": "Killing of Tumors Expressing Her-2/neu (percent specific lysis)", "setting": "SKMEL-5; no cytokines", "result": 16, "unit": "%"}, {"measurement": "Killing of Tumors Expressing Her-2/neu (percent specific lysis)", "setting": "ST486; [2]", "result": 8, "unit": "%"}, {"measurement": "Killing of Tumors Expressing Her-2/neu (percent specific lysis)", "setting": "ST486; no cytokines", "result": 5, "unit": "%"}, {"measurement": "Killing of Tumors Expressing Her-2/neu (percent specific lysis)", "setting": "SV80; [2]", "result": 2, "unit": "%"}, {"measurement": "Killing of Tumors Expressing Her-2/neu (percent specific lysis)", "setting": "SV80; no cytokines", "result": 2, "unit": "%"}, {"measurement": "Killing of Tumors Expressing Her-2/neu (percent specific lysis)", "setting": "SW480; [2]", "result": 17, "unit": "%"}, {"measurement": "Killing of Tumors Expressing Her-2/neu (percent specific lysis)", "setting": "SW480; no cytokines", "result": 2, "unit": "%"}, {"measurement": "Killing of Tumors Expressing Her-2/neu (percent specific lysis)", "setting": "T98G; [2]", "result": 93, "unit": "%"}, {"measurement": "Killing of Tumors Expressing Her-2/neu (percent specific lysis)", "setting": "T98G; no cytokines", "result": 29, "unit": "%"}, {"measurement": "Killing of Tumors Expressing Her-2/neu (percent specific lysis)", "setting": "U2-OS; [2]", "result": 62, "unit": "%"}, {"measurement": "Killing of Tumors Expressing Her-2/neu (percent specific lysis)", "setting": "U2-OS; no cytokines", "result": 30, "unit": "%"}, {"measurement": "Killing of Tumors Expressing Her-2/neu (percent specific lysis)", "setting": "U87G; [2]", "result": 1, "unit": "%"}, {"measurement": "Killing of Tumors Expressing Her-2/neu (percent specific lysis)", "setting": "U87G; no cytokines", "result": 1, "unit": "%"}]}
{"sequence": "STPPPGTRV [hu-wt-p53 149-157]", "values": [{"measurement": "A2.1-binding activity / affinity for the presenting MHC class I molecule (in words)", "setting": "HLA-A2.1", "result": "intermediate affinity"}, {"measurement": "Lytic Activity by Peptide-Specific CTL After Priming of A2.1/K^b-Tg Mice [Specific ^51Cr release (%)]", "setting": "A2.1/K^b-Tg mice; E:T ratio of 60:1, peptide-pulsed T2A2/K^b targets, highest of at least three individual mice", "result": 91, "unit": "%"}, {"measurement": "A2.1/K^b-restricted peptide-specific CTL response of A2.1/K^b-Tg mice (in words)", "setting": "A2.1/K^b-Tg mice; mouse, in vivo", "result": "detectable"}, {"measurement": "peptide concentration required for equivalent lysis of T2 targets by A2 vs. A2.1/K^b derived CTL (fold less)", "setting": "[1]", "result": 3, "unit": "fold"}]}
